Measured values reported in US20180074053A1 (priority 2016, published 2018).
Like-named read-outs stand apart in the source and are kept apart here.

How the values were obtained:
Experiment in all cases: cell-based
MC5 = MC5 (Homo sapiens, UniProt P33032)
Procedure: (§1) The platform uses ChemiScreen GPCR stable cell lines that are used for real-time calcium flux assays to rapidly, screen a spectrum of GPCRs. […] Percentage activation values were determined upon initial addition of compound(s). Percentage activation and inhibition values were determined for each GPCR relative to the reference compounds.
(§2) Assays were performed according to the manufacturer's instructions. […] The assay plate was read by the FLIPR TETRA® (Molecular Devices, Sunnyvale, Calif.). All assay plate data were subjected to appropriate baseline corrections and the maximum fluorescence values were processed to calculate percentage activation (relative to ECmax reference agonist and vehicle control values).

NOP = NOP (Homo sapiens, UniProt P41146)
Procedure: as §1, §2

MCHR1 = MCHR1 (Homo sapiens, UniProt Q99705)
Procedure: as §1, §2

NMUR2 = NMUR2 (Homo sapiens, UniProt Q9GZQ4)
Procedure: as §1, §2

NPBW1 = NPBW1 (Homo sapiens, UniProt P48145)
Procedure: as §1, §2

NK1 = NK1 (Homo sapiens, UniProt P25103)
Procedure: as §1, §2

GPCR109a = GPCR109a (Homo sapiens, UniProt Q8TDS4)
Procedure: as §1, §2

Motilin = Motilin (Homo sapiens, UniProt O43193)
Procedure: as §1, §2

MCHR2 = MCHR2 (Homo sapiens, UniProt Q969V1)
Procedure: as §1, §2

MRGD = MRGD (Homo sapiens, UniProt Q8TDS7)
Procedure: as §1, §2

GPCR40 = GPCR40 (Homo sapiens, UniProt O14842)
Procedure: as §1, §2

MRGX1 = MRGX1 (Homo sapiens, UniProt Q96LB2)
Procedure: as §1, §2

MC2 = MC2 (Homo sapiens, UniProt Q01718)
Procedure: as §1, §2

NMUR1 = NMUR1 (Homo sapiens, UniProt Q9HB89)
Procedure: as §1, §2

MRGX2 = MRGX2 (Homo sapiens, UniProt Q96LB1)
Procedure: as §1, §2

NK2 = NK2 (Homo sapiens, UniProt P21452)
Procedure: as §1, §2

[1] = read-out: percent activation compared to standards, DT-110 @ 1.25 mM, Avg.
[2] = read-out: percent activation compared to standards, DT-110 @ 1.25 mM, n1
[3] = read-out: percent activation compared to standards, DT-110 @ 1.25 mM, n2
[4] = read-out: percent activation compared to standards, DT-110 @ 12.5 mM, Avg.
[5] = read-out: percent activation compared to standards, DT-110 @ 12.5 mM, n1
[6] = read-out: percent activation compared to standards, DT-110 @ 12.5 mM, n2

Chain of MCHR2 (Q969V1 whole entry): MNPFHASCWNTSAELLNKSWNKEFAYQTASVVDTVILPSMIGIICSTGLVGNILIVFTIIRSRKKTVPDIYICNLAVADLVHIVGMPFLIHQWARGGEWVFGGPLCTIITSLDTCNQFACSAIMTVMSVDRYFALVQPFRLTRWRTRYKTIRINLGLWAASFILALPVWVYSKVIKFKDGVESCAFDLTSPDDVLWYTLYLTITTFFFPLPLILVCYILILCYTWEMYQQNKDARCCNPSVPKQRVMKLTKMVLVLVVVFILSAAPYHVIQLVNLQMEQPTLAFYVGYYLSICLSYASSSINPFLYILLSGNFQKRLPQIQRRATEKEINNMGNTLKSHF
Chain of MRGX2 (Q96LB1 whole entry): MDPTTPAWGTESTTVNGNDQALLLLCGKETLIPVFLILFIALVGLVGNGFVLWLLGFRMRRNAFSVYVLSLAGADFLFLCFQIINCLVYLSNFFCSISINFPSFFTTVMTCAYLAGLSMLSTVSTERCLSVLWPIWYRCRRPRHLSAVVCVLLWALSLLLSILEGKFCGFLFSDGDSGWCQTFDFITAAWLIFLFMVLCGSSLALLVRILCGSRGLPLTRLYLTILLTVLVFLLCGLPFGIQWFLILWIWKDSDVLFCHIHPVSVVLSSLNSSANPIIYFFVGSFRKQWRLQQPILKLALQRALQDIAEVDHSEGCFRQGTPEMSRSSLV
Chain of NPBW1 (P48145 whole entry): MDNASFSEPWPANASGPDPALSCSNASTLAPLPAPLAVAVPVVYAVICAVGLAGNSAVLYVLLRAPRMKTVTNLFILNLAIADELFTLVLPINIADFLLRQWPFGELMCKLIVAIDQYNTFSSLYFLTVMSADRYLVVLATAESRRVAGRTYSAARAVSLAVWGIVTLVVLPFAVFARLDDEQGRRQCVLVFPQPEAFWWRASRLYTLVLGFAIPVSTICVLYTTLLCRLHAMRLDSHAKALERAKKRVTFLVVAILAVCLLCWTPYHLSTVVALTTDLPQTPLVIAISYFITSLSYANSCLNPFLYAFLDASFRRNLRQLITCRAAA
Chain of NK1 (P25103 whole entry): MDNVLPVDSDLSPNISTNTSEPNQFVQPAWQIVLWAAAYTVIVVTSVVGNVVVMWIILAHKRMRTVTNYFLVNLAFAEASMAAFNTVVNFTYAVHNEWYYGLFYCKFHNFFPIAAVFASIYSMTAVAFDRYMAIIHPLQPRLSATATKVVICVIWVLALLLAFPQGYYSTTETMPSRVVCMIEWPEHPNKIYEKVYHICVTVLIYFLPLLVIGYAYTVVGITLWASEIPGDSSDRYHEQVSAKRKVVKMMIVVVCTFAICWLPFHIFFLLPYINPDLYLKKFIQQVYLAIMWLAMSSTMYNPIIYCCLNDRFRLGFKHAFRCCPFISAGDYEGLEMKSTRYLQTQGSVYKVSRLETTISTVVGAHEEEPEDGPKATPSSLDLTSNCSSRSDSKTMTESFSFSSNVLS
Chain of MC5 (P33032 whole entry): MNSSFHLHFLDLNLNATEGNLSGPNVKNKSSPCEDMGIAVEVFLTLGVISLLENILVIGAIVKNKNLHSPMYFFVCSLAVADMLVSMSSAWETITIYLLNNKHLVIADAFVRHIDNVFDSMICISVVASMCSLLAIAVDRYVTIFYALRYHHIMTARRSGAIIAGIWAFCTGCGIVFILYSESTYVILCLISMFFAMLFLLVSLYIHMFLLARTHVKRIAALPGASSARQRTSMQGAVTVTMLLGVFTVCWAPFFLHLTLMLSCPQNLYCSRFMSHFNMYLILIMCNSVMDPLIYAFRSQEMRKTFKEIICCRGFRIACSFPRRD
Chain of NK2 (P21452 whole entry): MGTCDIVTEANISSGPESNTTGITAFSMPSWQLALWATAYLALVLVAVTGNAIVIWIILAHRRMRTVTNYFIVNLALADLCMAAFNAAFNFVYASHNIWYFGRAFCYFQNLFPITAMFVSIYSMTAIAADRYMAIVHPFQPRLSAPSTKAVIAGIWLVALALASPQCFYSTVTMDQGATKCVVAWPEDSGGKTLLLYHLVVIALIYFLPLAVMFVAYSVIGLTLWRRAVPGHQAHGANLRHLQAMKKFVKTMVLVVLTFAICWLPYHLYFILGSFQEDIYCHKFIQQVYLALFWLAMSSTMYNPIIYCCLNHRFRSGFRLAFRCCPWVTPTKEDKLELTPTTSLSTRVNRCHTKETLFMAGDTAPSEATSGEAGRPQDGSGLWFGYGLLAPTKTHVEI
Chain of Motilin (O43193 whole entry): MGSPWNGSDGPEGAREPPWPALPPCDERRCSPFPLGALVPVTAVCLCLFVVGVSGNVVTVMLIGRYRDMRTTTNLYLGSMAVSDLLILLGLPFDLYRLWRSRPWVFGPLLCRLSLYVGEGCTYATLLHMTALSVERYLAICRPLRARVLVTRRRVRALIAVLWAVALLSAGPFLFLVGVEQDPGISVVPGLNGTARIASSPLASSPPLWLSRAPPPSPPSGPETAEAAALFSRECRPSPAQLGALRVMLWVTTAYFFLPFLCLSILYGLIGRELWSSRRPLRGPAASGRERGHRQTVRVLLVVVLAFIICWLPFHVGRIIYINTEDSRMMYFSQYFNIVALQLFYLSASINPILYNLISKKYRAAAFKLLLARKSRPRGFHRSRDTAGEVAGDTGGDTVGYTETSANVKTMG
Chain of MRGD (Q8TDS7 whole entry): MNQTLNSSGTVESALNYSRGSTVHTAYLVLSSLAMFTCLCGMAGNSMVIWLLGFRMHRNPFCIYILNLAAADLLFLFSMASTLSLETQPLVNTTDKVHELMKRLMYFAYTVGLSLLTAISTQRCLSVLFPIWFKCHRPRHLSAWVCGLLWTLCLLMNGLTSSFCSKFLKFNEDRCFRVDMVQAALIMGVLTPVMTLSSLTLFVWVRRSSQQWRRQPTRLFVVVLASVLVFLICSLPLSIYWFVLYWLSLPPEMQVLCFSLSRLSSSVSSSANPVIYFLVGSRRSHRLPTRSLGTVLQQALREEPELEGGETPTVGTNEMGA
Chain of MC2 (Q01718 whole entry): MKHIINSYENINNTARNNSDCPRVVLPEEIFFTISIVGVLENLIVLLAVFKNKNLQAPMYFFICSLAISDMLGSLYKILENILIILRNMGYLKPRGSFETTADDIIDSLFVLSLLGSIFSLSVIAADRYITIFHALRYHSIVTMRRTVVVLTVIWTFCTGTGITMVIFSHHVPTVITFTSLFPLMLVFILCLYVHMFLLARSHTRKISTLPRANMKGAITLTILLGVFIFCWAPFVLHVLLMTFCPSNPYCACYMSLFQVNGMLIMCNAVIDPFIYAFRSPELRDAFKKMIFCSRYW
Chain of MC2 (Q8TCY5 whole entry partner): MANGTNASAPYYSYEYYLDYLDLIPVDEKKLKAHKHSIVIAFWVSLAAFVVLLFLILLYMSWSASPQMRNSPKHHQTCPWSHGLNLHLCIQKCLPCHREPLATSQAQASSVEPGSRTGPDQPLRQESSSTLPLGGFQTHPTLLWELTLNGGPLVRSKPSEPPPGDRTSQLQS
Chain of MRGX1 (Q96LB2 whole entry): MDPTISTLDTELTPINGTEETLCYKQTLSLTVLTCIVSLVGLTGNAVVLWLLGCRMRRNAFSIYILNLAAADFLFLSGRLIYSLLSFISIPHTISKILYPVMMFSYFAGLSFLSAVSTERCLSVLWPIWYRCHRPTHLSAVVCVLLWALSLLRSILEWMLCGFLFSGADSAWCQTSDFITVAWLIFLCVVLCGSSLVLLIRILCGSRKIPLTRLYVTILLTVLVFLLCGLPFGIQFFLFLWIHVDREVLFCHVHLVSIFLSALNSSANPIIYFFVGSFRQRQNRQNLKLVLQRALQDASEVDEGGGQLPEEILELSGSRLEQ
Chain of NOP (P41146 whole entry): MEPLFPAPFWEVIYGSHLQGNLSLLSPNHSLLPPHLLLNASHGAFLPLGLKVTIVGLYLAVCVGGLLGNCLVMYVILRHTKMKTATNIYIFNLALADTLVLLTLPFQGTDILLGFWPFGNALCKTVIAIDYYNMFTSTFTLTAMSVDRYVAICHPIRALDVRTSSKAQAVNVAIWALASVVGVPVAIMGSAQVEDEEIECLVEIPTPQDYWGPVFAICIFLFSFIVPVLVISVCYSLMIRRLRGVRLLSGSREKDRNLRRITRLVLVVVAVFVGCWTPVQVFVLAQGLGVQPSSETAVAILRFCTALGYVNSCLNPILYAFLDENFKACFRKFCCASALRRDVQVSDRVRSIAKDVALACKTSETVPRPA
Chain of MCHR1 (Q99705 whole entry): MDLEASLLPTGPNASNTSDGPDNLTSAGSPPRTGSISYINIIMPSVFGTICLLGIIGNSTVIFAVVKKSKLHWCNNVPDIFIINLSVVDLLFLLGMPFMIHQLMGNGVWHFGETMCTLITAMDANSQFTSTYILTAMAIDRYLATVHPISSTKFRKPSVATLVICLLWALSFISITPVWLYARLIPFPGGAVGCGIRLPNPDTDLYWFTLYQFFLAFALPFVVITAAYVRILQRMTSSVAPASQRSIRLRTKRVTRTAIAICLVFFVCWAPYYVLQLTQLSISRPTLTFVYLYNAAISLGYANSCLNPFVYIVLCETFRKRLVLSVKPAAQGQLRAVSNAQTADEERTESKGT
Chain of NMUR2 (Q9GZQ4 whole entry): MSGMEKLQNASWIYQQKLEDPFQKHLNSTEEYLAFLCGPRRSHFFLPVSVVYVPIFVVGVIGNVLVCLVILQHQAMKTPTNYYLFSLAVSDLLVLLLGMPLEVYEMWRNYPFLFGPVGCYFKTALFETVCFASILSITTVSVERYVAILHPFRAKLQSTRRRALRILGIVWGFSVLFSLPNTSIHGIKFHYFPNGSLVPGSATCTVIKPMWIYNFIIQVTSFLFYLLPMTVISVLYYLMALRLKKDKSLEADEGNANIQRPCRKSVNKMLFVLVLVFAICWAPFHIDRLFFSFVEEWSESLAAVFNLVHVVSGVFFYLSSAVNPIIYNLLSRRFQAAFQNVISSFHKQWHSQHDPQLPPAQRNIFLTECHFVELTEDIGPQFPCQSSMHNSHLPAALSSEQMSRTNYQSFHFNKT

CC(C)C[C@@H](NC(=O)CNC(=O)CN)C(=O)O
activation at 1250 µM (MC5; [1]): 0%
activation at 1250 µM (MC5; [2]): 0.7%
activation at 1250 µM (MC5; [3]): -0.8%
activation at 12500 µM (MC5; [4]): -0.3%
activation at 12500 µM (MC5; [5]): -0.6%
activation at 12500 µM (MC5; [6]): 0%
activation at 1250 µM (NOP; [1]): -0.1%
activation at 1250 µM (NOP; [2]): -7.8%
activation at 1250 µM (NOP; [3]): 7.6%
activation at 12500 µM (NOP; [4]): -2.3%
activation at 12500 µM (NOP; [5]): 3.4%
activation at 12500 µM (NOP; [6]): -8%
activation at 1250 µM (MCHR1; [1]): 0.4%
activation at 1250 µM (MCHR1; [2]): 0.2%
activation at 1250 µM (MCHR1; [3]): 0.7%
activation at 12500 µM (MCHR1; [4]): -0.1%
activation at 12500 µM (MCHR1; [5]): -0.5%
activation at 12500 µM (MCHR1; [6]): 0.3%
activation at 1250 µM (NMUR2; [1]): 2.4%
activation at 1250 µM (NMUR2; [2]): 0.9%
activation at 1250 µM (NMUR2; [3]): 3.9%
activation at 12500 µM (NMUR2; [4]): -0.9%
activation at 12500 µM (NMUR2; [5]): 0.4%
activation at 12500 µM (NMUR2; [6]): -2.2%
activation at 1250 µM (NPBW1; [1]): 0.2%
activation at 1250 µM (NPBW1; [2]): 1.6%
activation at 1250 µM (NPBW1; [3]): -1.1%
activation at 12500 µM (NPBW1; [4]): -0.9%
activation at 12500 µM (NPBW1; [5]): -0.8%
activation at 12500 µM (NPBW1; [6]): -0.9%
activation at 1250 µM (NK1; [1]): -0.9%
activation at 1250 µM (NK1; [2]): -1%
activation at 1250 µM (NK1; [3]): -0.9%
activation at 12500 µM (NK1; [4]): -1.1%
activation at 12500 µM (NK1; [5]): -1%
activation at 12500 µM (NK1; [6]): -1.1%
activation at 1250 µM (GPCR109a; [1]): -8.1%
activation at 1250 µM (GPCR109a; [2]): -8.1%
activation at 1250 µM (GPCR109a; [3]): -8%
activation at 12500 µM (GPCR109a; [4]): 54.3%
activation at 12500 µM (GPCR109a; [5]): 52.9%
activation at 12500 µM (GPCR109a; [6]): 55.7%
activation at 1250 µM (Motilin; [1]): -0.3%
activation at 1250 µM (Motilin; [2]): -0.3%
activation at 1250 µM (Motilin; [3]): -0.3%
activation at 12500 µM (Motilin; [4]): -0.4%
activation at 12500 µM (Motilin; [5]): -0.3%
activation at 12500 µM (Motilin; [6]): -0.5%
activation at 1250 µM (MCHR2; [1]): 0.5%
activation at 1250 µM (MCHR2; [2]): 0.1%
activation at 1250 µM (MCHR2; [3]): 0.8%
activation at 12500 µM (MCHR2; [4]): -0.9%
activation at 12500 µM (MCHR2; [5]): -0.8%
activation at 12500 µM (MCHR2; [6]): -0.9%
activation at 1250 µM (MRGD; [1]): 69.2%
activation at 1250 µM (MRGD; [2]): 76.5%
activation at 1250 µM (MRGD; [3]): 62%
activation at 12500 µM (MRGD; [4]): 64.5%
activation at 12500 µM (MRGD; [5]): 60.7%
activation at 12500 µM (MRGD; [6]): 68.3%
activation at 1250 µM (GPCR40; [1]): -9.5%
activation at 1250 µM (GPCR40; [2]): -9.3%
activation at 1250 µM (GPCR40; [3]): -9.6%
activation at 12500 µM (GPCR40; [4]): 50.2%
activation at 12500 µM (GPCR40; [5]): 55.9%
activation at 12500 µM (GPCR40; [6]): 44.5%
activation at 1250 µM (MRGX1; [1]): -1.9%
activation at 1250 µM (MRGX1; [2]): -1.3%
activation at 1250 µM (MRGX1; [3]): -2.5%
activation at 12500 µM (MRGX1; [4]): -6.6%
activation at 12500 µM (MRGX1; [5]): -6.7%
activation at 12500 µM (MRGX1; [6]): -6.6%
activation at 1250 µM (MC2; [1]): -0.7%
activation at 1250 µM (MC2; [2]): 0.6%
activation at 1250 µM (MC2; [3]): -2%
activation at 12500 µM (MC2; [4]): -1%
activation at 12500 µM (MC2; [5]): -1%
activation at 12500 µM (MC2; [6]): -0.9%
activation at 1250 µM (NMUR1; [1]): 0.5%
activation at 1250 µM (NMUR1; [2]): 1.3%
activation at 1250 µM (NMUR1; [3]): -0.4%
activation at 12500 µM (NMUR1; [4]): -0.1%
activation at 12500 µM (NMUR1; [5]): -0.7%
activation at 12500 µM (NMUR1; [6]): 0.5%
activation at 1250 µM (MRGX2; [1]): -0.2%
activation at 1250 µM (MRGX2; [2]): 0%
activation at 1250 µM (MRGX2; [3]): -0.4%
activation at 12500 µM (MRGX2; [4]): 0%
activation at 12500 µM (MRGX2; [5]): 0.4%
activation at 12500 µM (MRGX2; [6]): -0.4%
activation at 1250 µM (NK2; [1]): -9.5%
activation at 1250 µM (NK2; [2]): -9.4%
activation at 1250 µM (NK2; [3]): -9.6%
activation at 12500 µM (NK2; [4]): -9.6%
activation at 12500 µM (NK2; [5]): -9.5%
activation at 12500 µM (NK2; [6]): -9.7%
